Holding throughout (format): cell-based
Test [1] deals with PC12 cells that express mutant G93A SOD1 as a YFP fusion protein. The test is described as follows: high throughput cytotoxicity protection assay. To be noted: for EC50: Rattus norvegicus, PC-12, Table 1, fluorinated PYT compounds. An excerpt:
Cultured cells are utilized to conduct high throughput assays for compounds that protect against mutant SOD1-induced cytotoxicity. Two assays are used: first, in the cytotoxicity protection assay, compounds are screened for their ability to protect cells from the cytotoxic effects of aggregated mutant SOD1, irrespective of mechanism of drug action. Second, in the protein aggregation assay, compounds are screened for their ability to reduce aggregation of mutant SOD1. The high throughput cytotoxicity protection assay is the primary screen and compounds active in the primary screen (and their analogs) move forward into the secondary screen for protein aggregation.
(§1) The high throughput cytotoxicity protection assay was carried out in PC12 cells that express mutant G93A SOD1 as a YFP fusion protein from a doxycycline-inducible promoter (Matsumoto et al., J. Cell. Biol. 2005, 171, 75). […] This idea was tested by examining the sensitivity of PC12 cells to SOD1 aggregates in the presence and absence of proteasome inhibitor MG132. PC12 cells expressing no SOD1, wild type SOD1, G85R SOD1 or G93A SOD1 were grown with or without MG132 (FIG. 1). […] In these cells, protein aggregation was detected after 24 h and loss of cell viability was detected at approximately 48 h. […] The ability of protein aggregates to induce cell death was examined by treating G93A SOD1-expressing cells with MG132 for 24 h, removing the MG132 by washing and assaying cell viability after another 24 h. Because the loss of cell viability was similar following MG132 removal (FIG. 1, part C), it is likely that mutant SOD1 aggregates contribute directly to cytotoxicity in PC12 cells.
(§2) PC12 cells expressing G93A SOD1 were treated with 100 nM MG132 with or without co-treatment with geldanamycin or radicicol. […] Statistical analysis of the data produced a Z′ value of 0.55, which would predict good performance as a positive control in a high throughput screen (Zhang et al. J. Biomol. Screen 1999, 4(2), 67-73).

Test [2] deals with PC12 cells expressing G85R SOD1. The test is described as follows: mutant SOD1 direct protein aggregation assay. The text has this: Compounds that are active in the above assay could theoretically protect against mutant SOD1-induced cytotoxicity through a number of mechanisms, including the following: 1) Compounds could nonspecifically block or reverse protein aggregation via chaperone induction, as observed for radicicol and geldanamycin 2) Compounds could block or reverse the aggregation of a specific aggregated protein form 3) Compounds could interfere with an event downstream of protein aggregation that plays a critical role in mutant SOD1-induced cytotoxicity (e.g., proteasome function). 4) Compounds could act directly on SOD1 in a manner that prevents mutant SOD1 aggregation. These possibilities were tested using an assay that directly measures protein aggregation. In addition, unlike the high throughput cytotoxicity protection assay, the protein aggregation assay is based on G85R SOD1; this broadens the scope of the screening strategy, and should eliminate compounds with highly specific activity (i.e., G93A SOD1 limited) against protein aggregation.
In PC12 cells that express wild-type SOD1, SOD1 was diffusely localized throughout the cell (Matsumoto et al. J. Cell. Biol 2005, 171(1), 75-85). […]
To allow this assay to be used in a high-throughput manner, a Cellomics Arrayscan® high content microscopy system was used for screening and quantification. […]

Test [3] deals with PC12 cells expressing G93A mutant SOD1. The test can be described thus: mutant SOD1 protein aggregation in G93A cells. Here is the method:
as §2
In PC12 cells that express wild-type SOD1, SOD1 was diffusely localized throughout the cell (Matsumoto et al. J. Cell. Biol 2005, 171(1), 75-85). […] Therefore, these effects are likely to be due to MG132-induced proteasome inhibition, and not due to an off-target effect of MG132.
The identification of a positive control is a crucial step in assay development. Thus, PC12 cells expressing G85R or G93A mutant SOD1 were treated with MG132 to induce protein aggregation, and then co-treated with candidate chemical suppressors of protein aggregation. […] Both compounds induce heat shock transcription factor HSF-1, which in turn induces the heat shock response (FIG. 4). Treatment with radicicol reduced the proportion of cells with aggregates from 75% to 25%, a sufficient difference to allow visual scoring for compounds with efficacy equal to or greater than radicicol.

Test [4] concerns PC12 cells expressing G93A SOD1. The test can be described thus: sensitivity of PC12 cells to proteasome inhibitor (cell viability). As for the experimental part:
as §1

The subject of test [5] is PC12 cells expressing no SOD1, wild type SOD1 and G85R SOD1. The description is as above. To be noted: Rattus norvegicus, PC-12. Here is the method:
as §1

Setting [6] is: G93A SOD1 cells treated with 100 nM MG132, co-treatment.

Where a SMILES comes first, the peptide text is derived from it. The star is where a group is joined. Cbz = O=C(OCc1ccccc1)*

Usually EC50 stands for the concentration needed to bring the measured effect to its halfway point. For orientation: IC50 means the midpoint of a concentration-inhibition curve.

Compound `O=C1CC(=O)N(CC(F)(F)c2ccc(F)c(F)c2)C(=O)N1CC(F)(F)c1ccc(F)c(F)c1` displayed an EC50 in test [1] of 2 to 8 µM. Still for that read-out and setting: then `O=C1CC(=O)N(CC(F)(F)c2ccc(C(F)(F)F)cc2)C(=O)N1CC(F)(F)c1ccc(C(F)(F)F)cc1`, with 2 to 8 µM; and `O=C1CC(=O)N(CC(F)(F)c2ccc(Cl)c(Cl)c2)C(=O)N1CC(F)(F)c1ccc(Cl)c(Cl)c1`, with 2 to 8 µM.

On to `C[C@@H]1C[C@H]2O[C@@H]2/C=C\C=C\C(=O)Cc2c(Cl)c(O)cc(O)c2C(=O)O1` [radicicol], for which the cell viability result in test [1] (setting [6]) is on record as “increased cell viability in a dose-dependent manner”. In addition, the “proportion of cells with aggregates after treatment” value in test [2] (PC12 cells expressing G85R or G93A mutant SOD1, MG132-treated, 75% without co-treatment) was 25%. The “formation of protein aggregates” value in test [3] (setting [6]) is listed as “reduced formation of protein aggregates”.

`O=C1CC(=O)N(CC(F)(F)c2ccc(Cl)cc2)C(=O)N1CC(F)(F)c1ccc(Cl)cc1` yielded an EC50 in test [1] of 2 to 8 µM. For `CC(C)C[C@H](NC(=O)[C@H](Cc1ccccc1)NC(=O)c1cnccn1)B(O)O` [bortezomib], in test [4], the “sensitivity of PC12 cells to proteasome inhibition compared with MG132” value is reported as “Qualitatively similar results”. With `CC(C)C[C@@H](C=O)NC(=O)[C@H](CC(C)C)NC(=O)[C@H](CC(C)C)NC(=O)OCc1ccccc1` [MG132] (Cbz-Leu-Leu-Leu-aldehyde), the “cells containing protein aggregates” value in test [2] (cells expressing G85R SOD1 treated with MG132) was “up to 75%”. Besides, the “cells with protein aggregates” value in test [3] (cells expressing G93A mutant SOD1 following treatment with MG132) is on record as about 75%. In addition, the IC50 is about 0.4 µM in test [5] and about 0.075 µM in test [4] (Rattus norvegicus, PC-12, read-out: IC50 (cell viability)). Also, the “fold more sensitive than cells expressing no SOD1, wild type SOD1 or G85R SOD1” value in test [4] (G93A SOD1 cells) is given as “approximately 5 fold”.

The values are drawn from patent publication US9499494B2, “Pyrimidine-2,4,6-triones for use in the treatment of amyotrophic lateral sclerosis” (Northwestern University, priority 2009, dated 2016).
